The text below walks through data of patent US20260294940A1, “PHOSPHORUS-CONTAINING COMPOUNDS FOR TREATING INFLAMMATORY BOWEL DIESEASE” (VivaVision Biotech, Inc., priority 2022, published 2026).

Type in all cases: in vivo, Balb/c mice
One assay has as its system TNF-α. As to the kind of experiment: TNF-α level in oxazolone-induced colitis mice (cytometric bead array). To be noted: Day 9, PO BID 5 days, compound A30 1, 5 or 25 mg/kg, tofacitinib 10 mg/kg; for TNF-α level (intestinal mucosa): FIG. 7; for TNF-α level (serum): FIG. 9. How it is done:
(§1) Compound A30 was evaluated in an oxazolone-induced colitis murine model, along with tofacitinib. Boirivant et al., J. Exp. Med. 1998, 188, 1929-39. Balb/c mice were randomly divided into 6 groups according to Table 1:4 treatment groups (Treatment Groups), 1 vehicle group (Vehicle Group), and 1 sham group (Sham Group). The mice in Treatment and Vehicle Groups were sensitized with 200 μL of 2% oxazolone in acetone and olive oil (1:4), followed by injection of 100 μL of 1.5% oxazolone into the rectum of each mouse on Day 5 after sensitization. The mice in Sham Group were sensitized with 200 μL of a mixture of acetone and olive oil (1:4) without oxazolone, followed by injection of 100 μL of 50% ethanol/water into the rectum of each mouse on Day 5 after sensitization. Before the injection into the rectum, each mouse was anesthetized intraperitoneally with tribromoethanol (0.3 mL, 1.25%). From Days 4 to 8 after sensitization, the mice in Sham and Vehicle Groups were each given 0.5% CMC-Na by gavage, and the mice in Treatment Groups were each given by gavage tofacitinib or compound A30 in 0.5% CMC-Na, respectively, according to the dosing schedule shown in Table 1.
(§2) On Day 9 after sensitization, each mouse was euthanized and blood was collected from the heart. A serum was prepared and frozen for the determination of inflammatory factors.
(§3) The colon of each mouse was collected and photographed, and the colon length was measured and weighed after the removal of the content of the colon. A part of each colon collected was fixed using the Swiss roll technique in neutral paraformaldehyde for pathological scoring (Table 3) as described in Bialkowska et al., J. Vis. Exp. 2016, 113, e54161. The rest of the colon mucosa of each mouse was scraped and frozen for the determination of inflammatory factors.
(§4) The IFN-γ and TNFα levels were analyzed using a BD™ cytometric bead array (CBA) kit.

The subject of the next assay is IFN-γ. Description: IFN-γ level in oxazolone-induced colitis mice (cytometric bead array). To be noted: Day 9, PO BID 5 days, compound A30 1, 5 or 25 mg/kg, tofacitinib 10 mg/kg; for IFN-γ level (intestinal mucosa): FIG. 8; for IFN-γ level (serum): FIG. 10. As for the experimental part:
as §1, §2, §3, §4

Assay [1] has as its system oxazolone-induced colitis mice. Description: Oxazolone-induced acute colitis in mice for ulcerative colitis (bodyweight, DAI, colon weight, length and density). To be noted: PO BID 5 days, compound A30 1, 5 or 25 mg/kg, tofacitinib 10 mg/kg; for colon weight / colon length / colon density: Day 9 after sensitization; for colon weight: FIG. 3; for colon length: FIG. 4; for colon density: FIG. 5; for bodyweight change: FIG. 1; for DAI score: FIG. 2. How it is done: as §1
The bodyweight of each mouse was measured daily. From Day 4 after sensitization, the fecal property and occult blood as determined with a fecal occult blood test (FOBT) of each mouse were measured daily to calculate a disease activity index (DAI) according to Table 2.
as §2, §3
Due to the inflammation, it is expected that the colon of an oxazolone-induced colitis mouse has an […], and increased density.

With `C[C@@H]1CCN(C(=O)CC#N)C[C@@H]1N(C)c1ncnc2[nH]ccc12` [tofacitinib], in the assay with TNF-α, the “TNF-α level (intestinal mucosa)” value is reported as “lowered” and the “TNF-α level (serum)” value is listed as “lowered”. In the assay on IFN-γ, the “IFN-γ level (intestinal mucosa)” value is “lowered” and the “IFN-γ level (serum)” value was “lowered”. Moreover, in assay [1], the colon weight entry is reported as “able to reverse the disease effects”, the colon length entry is “able to reverse the disease effects”, the colon density result was “able to reverse the disease effects” and the bodyweight change result is given as “slowed the bodyweight loss”. The DAI score result in assay [1] is “improved the DAI score”.

Consider `C[P@](=O)(CCc1cc(Cl)c(C(=O)N[C@@H](Cc2cccc(S(C)(=O)=O)c2)C(=O)O)c(Cl)c1)c1cccc(O)c1` [compound A30, (S)-2-(2,6-dichloro-4-(2-((S)-(3-hydroxyphenyl)(methyl)phosphoryl)ethyl)benz-amido)-3-(3-(methylsulfonyl)phenyl)propanoic acid], for which, in the assay on TNF-α, the “TNF-α level (intestinal mucosa)” value is reported as “lowered” and the “TNF-α level (serum)” value is listed as “lowered”. Moreover, in the assay on IFN-γ, the “IFN-γ level (intestinal mucosa)” value was “lowered” and the “IFN-γ level (serum)” value is on record as “lowered”. Moreover, in assay [1], the colon weight result was “able to reverse the disease effects”, the colon length result is “able to reverse the disease effects”, the colon density result is “able to reverse the disease effects” and the bodyweight change entry is given as “slowed the bodyweight loss”. Further, the DAI score entry in assay [1] was “improved the DAI score”.
